21 compounds from patent publication US20240239752A1, “BICYCLIC HETEROAROMATIC INHIBITORS OF KLK5” (BioCryst Pharmaceuticals, Inc., priority 2021, published 2024) can be followed below.

The structures appear in SMILES notation. Bounds are passed on as bounds.

For this experiment, the target named is T1, recombinant human KLK5 (Homo sapiens, UniProt Q9Y337).
T1 construct: purchased Novoprotein or R&D Systems C415 or 1108-SE
T1 sequence (Q9Y337 23-293): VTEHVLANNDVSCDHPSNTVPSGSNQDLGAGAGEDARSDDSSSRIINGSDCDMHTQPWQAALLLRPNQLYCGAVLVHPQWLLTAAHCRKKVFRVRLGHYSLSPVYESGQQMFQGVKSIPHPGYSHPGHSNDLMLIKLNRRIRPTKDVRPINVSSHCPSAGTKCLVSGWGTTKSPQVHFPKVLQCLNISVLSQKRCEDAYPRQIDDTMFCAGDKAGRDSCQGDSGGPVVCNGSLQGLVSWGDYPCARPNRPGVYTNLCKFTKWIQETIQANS
The experiment can be described thus: Kallikrein (KLK) 5 enzymatic assay (Boc-VPR-AMC fluorogenic substrate). Type of experiment: biochemical. To be noted: recombinant human KLK5 0.1 μg/well, Boc-VPR-AMC 100 μM, pH 7.5, room temperature, 1% DMSO; tested a minimum of three times. The gist of the method:
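Fluorogenic rate assay at pH 7.5 (0.1 M NaH2PO4, 1% DMSO, room temperature), run at least three times per compound. Compound was premixed with 0.1 μg/well recombinant human KLK5 before adding 100 μM Boc-VPR-AMC; AMC release was read at ex 380/em 460 nm, and IC50 derived from inhibition of rate vs DMSO control.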
For orientation: IC50 means the point on the concentration scale where inhibition reaches its midpoint. Turning to `Nc1nccc2c(-c3ccc4c(c3)C(COc3ccccc3CC(=O)O)=CC43CCCC3)cccc12` [Compound 400f, 2-(2-((5′-(1-aminoisoquinolin-5-yl)spiro[cyclopentane-1,1′-inden]-3′-yl)methoxy)phenyl)acetic acid], the IC50 is less than 1000 nM.
Regarding `Nc1nccc2ccc(-c3ccc4c(c3)C(COc3ccccc3CC(=O)O)=CC43CCCC3)cc12` [Compound 401b, 2-(2-((5′-(1-aminoisoquinolin-7-yl)spiro[cyclopentane-1,1′-inden]-3′-yl)methoxy)phenyl)acetic acid], the IC50 is less than 1000 nM.
Regarding `Nc1nccc2ccc(-c3ccc4c(c3)C(COc3ccccc3CC(=O)O)CC43CCCC3)cc12` (stereo not drawn) [Compound 402a, 2-(2-((5′-(1-aminoisoquinolin-7-yl)-2′,3′-dihydrospiro[cyclopentane-1,1′-inden]-3′-yl)methoxy)phenyl)acetic acid], the IC50 lay within 1000 to 10000 nM.
Under `Nc1nccc2c(-c3ccc4c(c3)C(COc3ccccc3CC(=O)O)CC43CCCC3)cccc12` (stereo not drawn) [Compound 403a, 2-(2-((5′-(1-aminoisoquinolin-5-yl)-2′,3′-dihydrospiro[cyclopentane-1,1′-inden]-3′-yl)methoxy)phenyl)acetic acid] stands less than 1000 nM; under `CCOC(=O)N1CCC2(CC1)CC(Oc1cccc(C)c1CC(=O)O)c1cc(-c3ccc4ccnc(N)c4c3)ccc12` (stereo not drawn) [Compound 404c, 2-(2-((5-(1-aminoisoquinolin-7-yl)-1′-(ethoxycarbonyl)-2,3-dihydrospiro[indene-1,4′-piperidin]-3-yl)oxy)-6-methylphenyl)acetic acid], less than 1000 nM.
Next, `CCOC(=O)N1CCC2(CC1)CC(Oc1cccc(C)c1CC(=O)O)c1cc(-c3cccc4c(N)nccc34)ccc12` (stereo not drawn) [Compound 405b, 2-(2-((5-(1-aminoisoquinolin-5-yl)-1′-(ethoxycarbonyl)-2,3-dihydrospiro[indene-1,4′-piperidin]-3-yl)oxy)-6-methylphenyl)acetic acid]: less than 1000 nM.
`CC(=O)N1CCC2(CC1)CC(Oc1cccc(C)c1CC(=O)O)c1cc(-c3ccc4ccnc(N)c4c3)ccc12` (stereo not drawn) [Compound 406c, 2-(2-((1′-acetyl-5-(1-aminoisoquinolin-7-yl)-2,3-dihydrospiro[indene-1,4′-piperidin]-3-yl)oxy)-6-methylphenyl)acetic acid]: the IC50 was less than 1000 nM.
Under `CC(=O)N1CCC2(CC1)CC(Oc1cccc(C)c1CC(=O)O)c1cc(-c3cccc4c(N)nccc34)ccc12` (stereo not drawn) [Compound 407b, 2-(2-((1′-acetyl-5-(1-aminoisoquinolin-5-yl)-2,3-dihydrospiro[indene-1,4′-piperidin]-3-yl)oxy)-6-methylphenyl)acetic acid] stands less than 1000 nM; under `COC(=O)N1CCC2(CC1)CC(Oc1cc(F)ccc1CC(=O)O)c1cc(-c3ccc4ccnc(N)c4c3)ccc12` (stereo not drawn) [Compound 408f, 2-(2-((5-(1-aminoisoquinolin-7-yl)-1′-(methoxycarbonyl)-2,3-dihydrospiro[indene-1,4′-piperidin]-3-yl)oxy)-4-fluorophenyl)acetic acid], less than 1000 nM; under `COC(=O)N1CCC2(CC1)CC(Oc1cc(F)ccc1CC(=O)O)c1cc(-c3cccc4c(N)nccc34)ccc12` (stereo not drawn) [Compound 409b, 2-(2-((5-(1-aminoisoquinolin-5-yl)-1′-(methoxycarbonyl)-2,3-dihydrospiro[indene-1,4′-piperidin]-3-yl)oxy)-4-fluorophenyl)acetic acid], less than 1000 nM.
Under `COC(=O)N1CCC2(CC1)CC(Oc1cc(C#N)ccc1CC(=O)O)c1cc(-c3ccc4ccnc(N)c4c3)ccc12` (stereo not drawn) [Compound 410d, 2-(2-((5-(1-aminoisoquinolin-7-yl)-1′-(methoxycarbonyl)-2,3-dihydrospiro[indene-1,4′-piperidin]-3-yl)oxy)-4-cyanophenyl)acetic acid] stands less than 1000 nM; under `COC(=O)N1CCC2(CC1)CC(Oc1cc(C#N)ccc1CC(=O)O)c1cc(-c3cccc4c(N)nccc34)ccc12` (stereo not drawn) [Compound 411b, 2-(2-((5-(1-aminoisoquinolin-5-yl)-1′-(methoxycarbonyl)-2,3-dihydrospiro[indene-1,4′-piperidin]-3-yl)oxy)-4-cyanophenyl)acetic acid], less than 1000 nM; under `COC(=O)N1CCC2(CC1)CC(Oc1cc(C)ccc1CC(=O)O)c1cc(-c3ccc4ccnc(N)c4c3)ccc12` (stereo not drawn) [Compound 412c, 2-(2-((5-(1-aminoisoquinolin-7-yl)-1′-(methoxycarbonyl)-2,3-dihydrospiro[indene-1,4′-piperidin]-3-yl)oxy)-4-methylphenyl)acetic acid], less than 1000 nM.
Next, `COC(=O)N1CCC2(CC1)CC(Oc1cc(C)ccc1CC(=O)O)c1cc(-c3cccc4c(N)nccc34)ccc12` (stereo not drawn) [Compound 413b, 2-(2-((5-(1-aminoisoquinolin-5-yl)-1′-(methoxycarbonyl)-2,3-dihydrospiro[indene-1,4′-piperidin]-3-yl)oxy)-4-methylphenyl)acetic acid]: less than 1000 nM; `Nc1nccc2ccc(-c3ccc4c(c3)[C@H](Oc3ccccc3CC(=O)O)CC43CCN(CC(=O)O)CC3)cc12` [Compound 414c, (R)-2-(2-((5-(1-aminoisoquinolin-7-yl)-1′-(carboxymethyl)-2,3-dihydrospiro[indene-1,4′-piperidin]-3-yl)oxy)phenyl)acetic acid]: less than 1000 nM; `Nc1nccc2c(-c3ccc4c(c3)[C@H](Oc3ccccc3CC(=O)O)CC43CCN(CC(=O)O)CC3)cccc12` [Compound 415b, (R)-2-(2-((5-(1-aminoisoquinolin-5-yl)-1′-(carboxymethyl)-2,3-dihydrospiro[indene-1,4′-piperidin]-3-yl)oxy)phenyl)acetic acid]: less than 1000 nM.
Turning to `CCCN1CCC2(CC1)C[C@@H](Oc1ccccc1CC(=O)O)c1cc(-c3ccc4ccnc(N)c4c3)ccc12` [Compound 416c, (R)-2-(2-((5-(1-aminoisoquinolin-7-yl)-1′-propyl-2,3-dihydrospiro[indene-1,4′-piperidin]-3-yl)oxy)phenyl)acetic acid], the IC50 is less than 1000 nM.
As for `CCCN1CCC2(CC1)C[C@@H](Oc1ccccc1CC(=O)O)c1cc(-c3cccc4c(N)nccc34)ccc12` [Compound 417b, (R)-2-(2-((5-(1-aminoisoquinolin-5-yl)-1′-propyl-2,3-dihydrospiro[indene-1,4′-piperidin]-3-yl)oxy)phenyl)acetic acid], the IC50 is less than 1000 nM.
Under `CCN1CCC2(CC1)C[C@@H](Oc1ccccc1CC(=O)O)c1cc(-c3cccc4c(N)nccc34)ccc12` [Compound 418c, (R)-2-(2-((5-(1-aminoisoquinolin-5-yl)-1′-ethyl-2,3-dihydrospiro[indene-1,4′-piperidin]-3-yl)oxy)phenyl)acetic acid] stands less than 1000 nM; under `COc1ccc(CC(=O)O)c(O[C@@H]2CCc3ccc(-c4ccc5ccnc(N)c5c4)cc32)c1` [Compound 419c, (R)-2-(2-((6-(1-aminoisoquinolin-7-yl)-2,3-dihydro-1H-inden-1-yl)oxy)-4-methoxyphenyl)acetic acid], less than 1000 nM.
Next, `COc1ccc(CC(=O)O)c(O[C@@H]2CCc3ccc(-c4cccc5c(N)nccc45)cc32)c1` [Compound 420b, (R)-2-(2-((6-(1-aminoisoquinolin-5-yl)-2,3-dihydro-1H-inden-1-yl)oxy)-4-methoxyphenyl)acetic acid]: less than 1000 nM.
